Measured values published in article PMC9743148 (Annals of oncology : official journal of the European …, 2020).

Test system: patients with advanced solid tumors
Assay: Treatment-emergent adverse events
Type: in vivo, human
[1] = Combined t.i.w. cohorts (n = 42)

C=CC(=O)N1CC[C@H](n2nc(C#Cc3cc(OC)cc(OC)c3)c3c(N)ncnc32)C1 [futibatinib]
AST increased TEAE, Grade 1 [1]: 1 (2) n (%) | AST increased TEAE, Grade 2 [1]: 3 (7) n (%) | AST increased TEAE, Grade 3 [1]: 0 (0) n (%) | AST increased TEAE, Grade 4 [1]: 0 (0) n (%) | Abdominal pain TEAE, Any grade [1]: 8 (19) n (%) | Abdominal pain TEAE, Grade 1 [1]: 4 (10) n (%) | Abdominal pain TEAE, Grade 2 [1]: 2 (5) n (%) | Abdominal pain TEAE, Grade 3 [1]: 2 (5) n (%) | Abdominal pain TEAE, Grade 4 [1]: 0 (0) n (%) | Alopecia TEAE, Any grade [1]: 4 (10) n (%) | Alopecia TEAE, Grade 1 [1]: 4 (10) n (%) | Alopecia TEAE, Grade 2 [1]: 0 (0) n (%) | Alopecia TEAE, Grade 3 [1]: 0 (0) n (%) | Alopecia TEAE, Grade 4 [1]: 0 (0) n (%) | Anemia TEAE, Any grade [1]: 13 (31) n (%) | Anemia TEAE, Grade 1 [1]: 2 (5) n (%) | Anemia TEAE, Grade 2 [1]: 8 (19) n (%) | Anemia TEAE, Grade 3 [1]: 3 (7) n (%) | Anemia TEAE, Grade 4 [1]: 0 (0) n (%) | Any TEAE, Any grade [1]: 42 (100) n (%) | Any TEAE, Grade 1 [1]: 3 (7) n (%) | Any TEAE, Grade 2 [1]: 14 (33) n (%) | Any TEAE, Grade 3 [1]: 20 (48) n (%) | Any TEAE, Grade 4 [1]: 2 (5) n (%) | Any treatment-related AE, Any grade [1]: 37 (88) n (%) | Any treatment-related AE, Grade 1 [1]: 12 (29) n (%) | Any treatment-related AE, Grade 2 [1]: 14 (33) n (%) | Any treatment-related AE, Grade 3 [1]: 10 (24) n (%) | Any treatment-related AE, Grade 4 [1]: 1 (2) n (%) | Asthenia TEAE, Any grade [1]: 9 (21) n (%) | Asthenia TEAE, Grade 1 [1]: 5 (12) n (%) | Asthenia TEAE, Grade 2 [1]: 4 (10) n (%) | Asthenia TEAE, Grade 3 [1]: 0 (0) n (%) | Asthenia TEAE, Grade 4 [1]: 0 (0) n (%) | Back pain TEAE, Any grade [1]: 3 (7) n (%) | Back pain TEAE, Grade 1 [1]: 2 (5) n (%) | Back pain TEAE, Grade 2 [1]: 1 (2) n (%) | Back pain TEAE, Grade 3 [1]: 0 (0) n (%) | Back pain TEAE, Grade 4 [1]: 0 (0) n (%) | Constipation TEAE, Any grade [1]: 11 (26) n (%) | Constipation TEAE, Grade 1 [1]: 10 (24) n (%) | Constipation TEAE, Grade 2 [1]: 1 (2) n (%) | Constipation TEAE, Grade 3 [1]: 0 (0) n (%) | Constipation TEAE, Grade 4 [1]: 0 (0) n (%) | Cough TEAE, Any grade [1]: 2 (5) n (%) | Cough TEAE, Grade 1 [1]: 2 (5) n (%) | Cough TEAE, Grade 2 [1]: 0 (0) n (%) | Cough TEAE, Grade 3 [1]: 0 (0) n (%) | Cough TEAE, Grade 4 [1]: 0 (0) n (%) | Decreased appetite TEAE, Any grade [1]: 9 (21) n (%) | Decreased appetite TEAE, Grade 1 [1]: 5 (12) n (%) | Decreased appetite TEAE, Grade 2 [1]: 3 (7) n (%) | Decreased appetite TEAE, Grade 3 [1]: 1 (2) n (%) | Decreased appetite TEAE, Grade 4 [1]: 0 (0) n (%) | Diarrhea TEAE, Any grade [1]: 17 (40) n (%) | Diarrhea TEAE, Grade 1 [1]: 12 (29) n (%) | Diarrhea TEAE, Grade 2 [1]: 5 (12) n (%) | Diarrhea TEAE, Grade 3 [1]: 0 (0) n (%) | Diarrhea TEAE, Grade 4 [1]: 0 (0) n (%) | Dose reduction because of TEAE, Any grade [1]: 4 (10) n (%) | Dose reduction because of TEAE, Grade 1 [1]: 0 (0) n (%) | Dose reduction because of TEAE, Grade 2 [1]: 3 (7) n (%) | Dose reduction because of TEAE, Grade 3 [1]: 1 (2) n (%) | Dose reduction because of TEAE, Grade 4 [1]: 0 (0) n (%) | Dosing delay/interruption because of TEAE, Any grade [1]: 21 (50) n (%) | Dosing delay/interruption because of TEAE, Grade 1 [1]: 0 (0) n (%) | Dosing delay/interruption because of TEAE, Grade 2 [1]: 6 (14) n (%) | Dosing delay/interruption because of TEAE, Grade 3 [1]: 14 (33) n (%) | Dosing delay/interruption because of TEAE, Grade 4 [1]: 1 (2) n (%) | Dry eye TEAE, Any grade [1]: 2 (5) n (%) | Dry eye TEAE, Grade 1 [1]: 2 (5) n (%) | Dry eye TEAE, Grade 2 [1]: 0 (0) n (%) | Dry eye TEAE, Grade 3 [1]: 0 (0) n (%) | Dry eye TEAE, Grade 4 [1]: 0 (0) n (%) | Dry mouth TEAE, Any grade [1]: 14 (33) n (%) | Dry mouth TEAE, Grade 1 [1]: 13 (31) n (%) | Dry mouth TEAE, Grade 2 [1]: 1 (2) n (%) | Dry mouth TEAE, Grade 3 [1]: 0 (0) n (%) | Dry mouth TEAE, Grade 4 [1]: 0 (0) n (%) | Dry skin TEAE, Any grade [1]: 7 (17) n (%) | Dry skin TEAE, Grade 1 [1]: 6 (14) n (%) | Dry skin TEAE, Grade 2 [1]: 1 (2) n (%) | Dry skin TEAE, Grade 3 [1]: 0 (0) n (%) | Dry skin TEAE, Grade 4 [1]: 0 (0) n (%) | Fatigue TEAE, Any grade [1]: 7 (17) n (%) | Fatigue TEAE, Grade 1 [1]: 2 (5) n (%) | Fatigue TEAE, Grade 2 [1]: 5 (12) n (%) | Fatigue TEAE, Grade 3 [1]: 0 (0) n (%) | Fatigue TEAE, Grade 4 [1]: 0 (0) n (%) | Headache TEAE, Any grade [1]: 7 (17) n (%) | Headache TEAE, Grade 1 [1]: 6 (14) n (%) | Headache TEAE, Grade 2 [1]: 1 (2) n (%) | Headache TEAE, Grade 3 [1]: 0 (0) n (%) | Headache TEAE, Grade 4 [1]: 0 (0) n (%) | Hypercalcemia TEAE, Any grade [1]: 5 (12) n (%) | Hypercalcemia TEAE, Grade 1 [1]: 1 (2) n (%) | Hypercalcemia TEAE, Grade 2 [1]: 1 (2) n (%) | Hypercalcemia TEAE, Grade 3 [1]: 3 (7) n (%) | Hypercalcemia TEAE, Grade 4 [1]: 0 (0) n (%) | Hyperphosphatemia TEAE, Any grade [1]: 21 (50) n (%) | Hyperphosphatemia TEAE, Grade 1 [1]: 7 (17) n (%) | Hyperphosphatemia TEAE, Grade 2 [1]: 11 (26) n (%) | Hyperphosphatemia TEAE, Grade 4 [1]: 0 (0) n (%) | Hyperphosphatemia TEAE, grade 3 [1]: 3 (7) n (%) | Hypomagnesemia TEAE, Any grade [1]: 5 (12) n (%) | Hypomagnesemia TEAE, Grade 1 [1]: 4 (10) n (%) | Hypomagnesemia TEAE, Grade 2 [1]: 1 (2) n (%) | Hypomagnesemia TEAE, Grade 3 [1]: 0 (0) n (%) | Hypomagnesemia TEAE, Grade 4 [1]: 0 (0) n (%) | Hyponatremia TEAE, Any grade [1]: 5 (12) n (%) | Hyponatremia TEAE, Grade 1 [1]: 1 (2) n (%) | Hyponatremia TEAE, Grade 2 [1]: 0 (0) n (%) | Hyponatremia TEAE, Grade 3 [1]: 4 (10) n (%) | Hyponatremia TEAE, Grade 4 [1]: 0 (0) n (%) | Nausea TEAE, Any grade [1]: 12 (29) n (%) | Nausea TEAE, Grade 1 [1]: 11 (26) n (%) | Nausea TEAE, Grade 2 [1]: 0 (0) n (%) | Nausea TEAE, Grade 3 [1]: 1 (2) n (%) | Nausea TEAE, Grade 4 [1]: 0 (0) n (%) | Onycholysis TEAE, Any grade [1]: 5 (12) n (%) | Onycholysis TEAE, Grade 1 [1]: 4 (10) n (%) | Onycholysis TEAE, Grade 2 [1]: 1 (2) n (%) | Onycholysis TEAE, Grade 3 [1]: 0 (0) n (%) | Onycholysis TEAE, Grade 4 [1]: 0 (0) n (%) | Pyrexia TEAE, Any grade [1]: 5 (12) n (%) | Pyrexia TEAE, Grade 1 [1]: 4 (10) n (%) | Pyrexia TEAE, Grade 2 [1]: 0 (0) n (%) | Pyrexia TEAE, Grade 3 [1]: 1 (2) n (%) | Pyrexia TEAE, Grade 4 [1]: 0 (0) n (%) | Rash TEAE, Any grade [1]: 5 (12) n (%) | Rash TEAE, Grade 1 [1]: 5 (12) n (%) | Rash TEAE, Grade 2 [1]: 0 (0) n (%) | Rash TEAE, Grade 3 [1]: 0 (0) n (%) | Rash TEAE, Grade 4 [1]: 0 (0) n (%) | Stomatitis TEAE, Any grade [1]: 5 (12) n (%) | Stomatitis TEAE, Grade 1 [1]: 2 (5) n (%) | Stomatitis TEAE, Grade 2 [1]: 1 (2) n (%) | Stomatitis TEAE, Grade 3 [1]: 2 (5) n (%) | Stomatitis TEAE, Grade 4 [1]: 0 (0) n (%) | Treatment discontinuation because of TEAE, Any grade [1]: 1 (2) n (%) | Treatment discontinuation because of TEAE, Grade 1 [1]: 0 (0) n (%) | Treatment discontinuation because of TEAE, Grade 2 [1]: 0 (0) n (%) | Treatment discontinuation because of TEAE, Grade 3 [1]: 1 (2) n (%) | Treatment discontinuation because of TEAE, Grade 4 [1]: 0 (0) n (%) | Urinary tract infection TEAE, Any grade [1]: 5 (12) n (%) | Urinary tract infection TEAE, Grade 1 [1]: 0 (0) n (%) | Urinary tract infection TEAE, Grade 2 [1]: 4 (10) n (%) | Urinary tract infection TEAE, Grade 3 [1]: 1 (2) n (%) | Urinary tract infection TEAE, Grade 4 [1]: 0 (0) n (%) | Vomiting TEAE, Any grade [1]: 9 (21) n (%) | Vomiting TEAE, Grade 1 [1]: 5 (12) n (%) | Vomiting TEAE, Grade 2 [1]: 3 (7) n (%) | Vomiting TEAE, Grade 3 [1]: 1 (2) n (%) | Vomiting TEAE, Grade 4 [1]: 0 (0) n (%) | Hyperphosphatemia TEAE, grade 3 (combined q.d. cohorts): 16% | Hyperphosphatemia TEAE, any grade (combined q.d. cohorts, 30 of 44 patients): 68% | Hyperphosphatemia TEAE, grade 3 (combined t.i.w. cohorts): 7% | Hyperphosphatemia TEAE, any grade (combined t.i.w. cohorts, 21 of 42 patients): 50% | Patients with grade ≥3 TEAEs (overall population): > 50% | Grade 3 hyponatremia TEAE (overall population (n = 86)): 7% | Hyperphosphatemia leading to dose reductions (overall population (n = 86)): 6% | Hyperphosphatemia leading to dosing interruptions (overall population (n = 86)): 17% | Patients with grade 3 TEAEs (overall population (n = 86)): 48% | Patients with grade 4 TEAEs (overall population (n = 86)): 6% | Patients with treatment-related grade 3 AEs (overall population (n = 86)): 30% | TEAEs leading to treatment discontinuations (overall population (n = 86)): 3% | Treatment-related deaths (overall population (n = 86)): No treatment-related deaths
